From ChEMBL document CHEMBL5113519, “Discovery of Novel Imidazo[4,5-c]quinoline Derivatives to Treat Inflammatory Bowel Disease (IBD) by Inhibiting Multiple Proinflammatory Signaling Pathways and Restoring Intestinal Homeostasis” (J Med Chem, 2022)
Calls of active or inactive are those of the source. No cut-off for these calls is given here.

Key:
[1] = target: Tyrosine-protein kinase JAK1 (Homo sapiens, UniProt P23458); assay: Inhibition of JAK1 (unknown origin) using Kinase/Tyr 6 peptide as substrate incubated for 1 hrs in presence of ATP by fluorescence microplate reader analysis
Chain of Tyrosine-protein kinase JAK1 (P23458 whole entry): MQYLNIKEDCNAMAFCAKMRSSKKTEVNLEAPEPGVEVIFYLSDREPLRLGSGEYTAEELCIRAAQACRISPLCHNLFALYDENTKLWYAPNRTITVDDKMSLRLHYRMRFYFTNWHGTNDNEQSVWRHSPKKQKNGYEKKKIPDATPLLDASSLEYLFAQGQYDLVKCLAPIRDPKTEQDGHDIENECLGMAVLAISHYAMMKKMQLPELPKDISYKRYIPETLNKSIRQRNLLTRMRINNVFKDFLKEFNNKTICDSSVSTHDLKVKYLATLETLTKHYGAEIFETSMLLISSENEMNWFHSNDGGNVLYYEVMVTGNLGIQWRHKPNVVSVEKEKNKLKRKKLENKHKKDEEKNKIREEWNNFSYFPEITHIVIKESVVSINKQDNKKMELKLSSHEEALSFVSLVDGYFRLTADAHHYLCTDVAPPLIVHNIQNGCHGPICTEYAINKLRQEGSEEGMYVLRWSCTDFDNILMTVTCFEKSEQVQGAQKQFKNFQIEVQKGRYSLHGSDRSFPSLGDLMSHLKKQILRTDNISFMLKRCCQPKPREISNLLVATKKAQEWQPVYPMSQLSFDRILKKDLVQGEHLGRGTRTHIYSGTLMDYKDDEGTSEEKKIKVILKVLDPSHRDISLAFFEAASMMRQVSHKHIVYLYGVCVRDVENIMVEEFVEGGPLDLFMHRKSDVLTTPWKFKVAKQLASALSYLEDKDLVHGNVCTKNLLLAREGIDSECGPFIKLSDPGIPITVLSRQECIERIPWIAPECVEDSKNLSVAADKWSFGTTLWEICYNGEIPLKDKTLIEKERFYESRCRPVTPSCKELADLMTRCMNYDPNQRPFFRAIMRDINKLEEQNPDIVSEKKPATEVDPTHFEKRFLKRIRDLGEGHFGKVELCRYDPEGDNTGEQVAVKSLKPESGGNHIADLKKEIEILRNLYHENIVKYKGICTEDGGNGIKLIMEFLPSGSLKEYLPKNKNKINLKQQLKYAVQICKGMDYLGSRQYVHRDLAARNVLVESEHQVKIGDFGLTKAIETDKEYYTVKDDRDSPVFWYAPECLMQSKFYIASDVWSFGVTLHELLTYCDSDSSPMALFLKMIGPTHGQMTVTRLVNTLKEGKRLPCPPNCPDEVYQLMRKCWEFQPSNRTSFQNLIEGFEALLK

THP1-Dual [2] = assay: Anti-inflammatory activity against LPS-stimulated human THP1-Dual cells assessed as reduction in STAT1 phosphorylation level incubated for 6 hrs by Western blot analysis; assay type: functional, cell-based; conditions: dose 0.33-3 µM, DDE = dose-dependent effect
THP1-Dual [3] = assay: Anti-inflammatory activity against LPS-stimulated human THP1-Dual cells assessed as inhibition of IL-8 secretion incubated for 6 hrs followed by LPS stimulation by Western blot analysis; assay type: functional, cell-based; conditions: dose 0.33-3 µM, DDE = dose-dependent effect
Mus musculus [4] = assay: Antiinflammatory activity in DSS-induced acute enteritis C57BL mouse model assessed as suppression of DSS induced weight loss at 3 mg/kg, po administered daily and measured upto 11 days relative to control; assay type: functional; conditions: time <= 11 day
Mus musculus [5] = assay: Anti-inflammatory activity in TNBS induced IBD BALB/c mouse model assessed as increase in survival probability at 5 mg/kg via oral gavage administered daily for 12 days; assay type: functional, organism-based; conditions: time 12.0 day
Mus musculus [6] = assay: Anti-inflammatory activity in TNBS induced IBD BALB/c mouse model assessed as reduction in stool softness by measuring disease activity index score at 1 to 5 mg/kg via oral gavage administered daily for 12 days; assay type: functional, organism-based; conditions: dose 1-5 mg/kg, time 12.0 day
Mus musculus [7] = assay: Anti-inflammatory activity in TNBS induced IBD BALB/c mouse model assessed as reduction in bloody stool by measuring disease activity index score at 1 to 5 mg/kg via oral gavage administered daily for 12 days; assay type: functional, organism-based; conditions: dose 1-5 mg/kg, time 12.0 day
[8] = Toxicity in mouse assessed as change in body weight at 50 mg/kg measured upto 2 weeks; assay type: organism-based; conditions: in vivo, 336 h
[9] = Toxicity in mouse assessed as abnormal change in heart at 20 to 50 mg/kg, IG measured upto 2 weeks; assay type: organism-based; conditions: in vivo, po, 336 h, dose 20-50 mg/kg
[10] = Toxicity in mouse assessed as abnormal change in liver at 20 to 50 mg/kg, IG measured upto 2 weeks; assay type: organism-based; conditions: in vivo, po, 336 h, dose 20-50 mg/kg
[11] = Toxicity in mouse assessed as abnormal change in spleen at 20 to 50 mg/kg, IG measured upto 2 weeks; assay type: organism-based; conditions: in vivo, po, 336 h, dose 20-50 mg/kg
[12] = Toxicity in mouse assessed as effect on white blood cell number at 50 mg/kg, IG measured upto 2 weeks; assay type: organism-based; conditions: in vivo, po, 336 h
[13] = Toxicity in mouse assessed as effect on neutrophils number at 20 to 50 mg/kg, IG measured upto 2 weeks; assay type: organism-based; conditions: in vivo, po, 336 h, dose 20-50 mg/kg
[14] = Toxicity in mouse assessed as behavioral changes at 20 to 50 mg/kg, IG measured upto 2 weeks; assay type: organism-based; conditions: in vivo, po, 336 h, dose 20-50 mg/kg
Mus musculus [15] = assay: Anti-inflammatory bowel disease activity in DSS-induced acute enteritis mouse model assessed as reversal of intestinal microbiota at 3 mg/kg; assay type: functional, organism-based
Mus musculus [16] = assay: Anti-inflammatory bowel disease activity in DSS-induced acute enteritis mouse model assessed as decrese in bacteroides abundance at 3 mg/kg; assay type: functional, organism-based
THP1-Dual [17] = assay: Inhibition of LPS induced IL-1 beta expression in human THP1-Dual cells at 1 uM incubated for 6 hrs; assay type: functional, cell-based
THP1-Dual [18] = assay: Inhibition of LPS induced TNF alpha expression in human THP1-Dual cells at 1 uM incubated for 6 hrs; assay type: functional, cell-based
THP1-Dual [19] = assay: Inhibition of LPS induced IL-23A expression in human THP1-Dual cells at 1 uM incubated for 6 hrs; assay type: functional, cell-based
THP1-Dual [20] = assay: Downregulation of IFN-alpha in human THP1-Dual cells at 1 uM incubated for 6 hrs; assay type: functional, cell-based
THP1-Dual [21] = assay: Downregulation of JAK/STAT in human THP1-Dual cells at 1 uM incubated for 6 hrs; assay type: functional, cell-based
THP1-Dual [22] = assay: Downregulation of complement system in human THP1-Dual cells at 1 uM incubated for 6 hrs; assay type: functional, cell-based
[23] = target: T1, Tyrosine-protein kinase JAK3 (Homo sapiens, UniProt P52333)
T1 sequence (P52333 whole entry): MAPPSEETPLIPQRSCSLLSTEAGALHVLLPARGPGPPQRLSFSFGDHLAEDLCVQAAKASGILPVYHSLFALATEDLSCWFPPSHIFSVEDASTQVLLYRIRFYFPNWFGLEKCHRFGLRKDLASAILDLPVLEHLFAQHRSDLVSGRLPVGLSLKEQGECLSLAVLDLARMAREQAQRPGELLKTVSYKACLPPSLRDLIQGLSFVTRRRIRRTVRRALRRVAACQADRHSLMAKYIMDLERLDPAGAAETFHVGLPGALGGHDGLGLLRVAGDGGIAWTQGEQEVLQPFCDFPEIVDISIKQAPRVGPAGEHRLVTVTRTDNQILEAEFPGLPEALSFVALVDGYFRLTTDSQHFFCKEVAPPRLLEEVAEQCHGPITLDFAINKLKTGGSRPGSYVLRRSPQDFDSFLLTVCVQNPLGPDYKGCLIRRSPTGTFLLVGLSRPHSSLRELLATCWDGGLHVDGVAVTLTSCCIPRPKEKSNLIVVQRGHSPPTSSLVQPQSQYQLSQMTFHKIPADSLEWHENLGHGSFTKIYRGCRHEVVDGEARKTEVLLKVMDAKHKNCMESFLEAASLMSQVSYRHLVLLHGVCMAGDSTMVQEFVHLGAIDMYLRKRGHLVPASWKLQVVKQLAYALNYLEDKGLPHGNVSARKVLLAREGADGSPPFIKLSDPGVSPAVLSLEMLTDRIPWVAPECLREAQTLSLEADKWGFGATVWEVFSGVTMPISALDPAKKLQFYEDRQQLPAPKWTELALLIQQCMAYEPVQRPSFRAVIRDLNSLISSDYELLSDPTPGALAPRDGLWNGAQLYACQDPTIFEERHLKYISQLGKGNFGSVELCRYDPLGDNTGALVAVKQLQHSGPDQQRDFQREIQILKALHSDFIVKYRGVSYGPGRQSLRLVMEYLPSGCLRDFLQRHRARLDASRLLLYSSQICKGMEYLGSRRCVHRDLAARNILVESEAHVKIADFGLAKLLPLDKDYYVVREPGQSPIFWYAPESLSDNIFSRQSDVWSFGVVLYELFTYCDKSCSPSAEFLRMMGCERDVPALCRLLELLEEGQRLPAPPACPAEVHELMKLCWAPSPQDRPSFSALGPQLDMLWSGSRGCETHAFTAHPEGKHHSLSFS
Description: Inhibition of JAK3 (unknown origin) using Kinase/Tyr 6 peptide as substrate incubated for 1 hrs in presence of ATP by fluorescence microplate reader analysis

IC50 [1]: 8.9 nM
IC50 [23]: 46.2 nM
Compound: Cc1nc2cnc3ccc(-c4cc(Cl)c(O)c(Cl)c4)cc3c2n1C1CCN(C)CC1
Activity (THP1-Dual [2]): Dde
Activity (THP1-Dual [3]): Dde
Activity (Mus musculus [4]): 10.81%
Activity (Mus musculus [5]): Active
Activity (Mus musculus [6]): Active
Activity (Mus musculus [7]): Active
Activity [8]: Non-Toxic
Activity [9]: Non-Toxic
Activity [10]: Non-Toxic
Activity [11]: Non-Toxic
Activity [12]: Non-Toxic
Activity [13]: Non-Toxic
Activity [14]: Non-Toxic
Activity (Mus musculus [15]): Active
Activity (Mus musculus [16]): Active
inhibition (THP1-Dual [17]): Active
inhibition (THP1-Dual [18]): Active
inhibition (THP1-Dual [19]): Active
Activity (THP1-Dual [20]): Active
Activity (THP1-Dual [21]): Active
Activity (THP1-Dual [22]): Active
